The nature of test [1]: ADAM10 protease inhibitors, dose response, selectivity assay for ADAM17 exosite inhibitor project, biochemical, FRET peptide substrate, recombinant human ADAM10 (AID 743259).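 Also: ADAM10 enzyme cleaving a FRET peptide substrate.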
The target in test [2] is Disintegrin and metalloproteinase domain-containing protein 17 (Homo sapiens, UniProt P78536). Put plainly: exosite inhibitors of ADAM17, dose response, biochemical (AID 743260).
In test [3] the test system is HEK293. Put plainly: NOD2 signaling inhibitors in MDP-stimulated cells, cell-based, uHTS, luminescence (AID 2001). It counts as functional. The following applies: Homo sapiens.
For test [4], the system named is HEK293. Nature of the test: NOD1 signaling inhibitors, primary screen, cell-based, luminescence, uHTS (AID 1578). The following applies: Homo sapiens. It counts as functional.
Test [5] is described as follows: mammalian cell cytotoxicity, dose response, cytotoxicity control, plate reader, cherry-pick samples (AID 504397). In kind it is functional, cell-based.
Another test concerns the target Cytochrome P450 3A4 (Homo sapiens, UniProt P08684).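 Also: CYP3A4 tested as one member of a cytochrome P450 panel screen.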
Test [6] can be described thus: Luminescence Cell-Based Dose Retest to Confirm Inhibitors of Cancer Stem Cells. [Related pubchem assays (depositor defined):AID2717, AID2721]. In kind it is functional. The note with it: Homo sapiens.
The next test has as its system INS1. Put plainly: beta cell apoptosis inhibitors, cytokine rescue, dose response, luminescence, retest (AID 449756).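 Also: cell death triggered by IL-1 beta plus TNF-alpha plus IFN-gamma mixture; protective hits raise ATP signal compared with cytokine alone wells.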 The following applies: Rattus norvegicus. In kind it is functional, cell-based.
The target in test [7] is T1, CAAX prenyl protease 2 (Saccharomyces cerevisiae S288c, UniProt Q03530).
T1 sequence (Q03530 whole entry): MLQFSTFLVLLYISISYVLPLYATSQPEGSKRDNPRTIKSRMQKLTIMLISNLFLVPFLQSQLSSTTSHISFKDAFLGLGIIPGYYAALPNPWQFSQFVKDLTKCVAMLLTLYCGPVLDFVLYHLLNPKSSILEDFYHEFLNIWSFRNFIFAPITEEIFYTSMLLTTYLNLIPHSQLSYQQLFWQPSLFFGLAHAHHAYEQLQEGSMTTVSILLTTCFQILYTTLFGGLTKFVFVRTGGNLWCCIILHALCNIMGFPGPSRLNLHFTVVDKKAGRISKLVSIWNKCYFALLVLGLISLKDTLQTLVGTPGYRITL
Nature of the test: yeast Rce1 CaaX protease inhibitors, dose response, biochemical, plate reader, dry powder retest (AID 588851).

The target of test [8] is T1, CAAX prenyl protease 2. In kind it is biochemical.
Test [9] has as its system HEK293. Put plainly: cells. The following applies: Homo sapiens. In kind it is functional, cell-based.
Test [10] relates to HEK293. Put plainly: cells. It counts as functional, cell-based. The note with it: Homo sapiens. The source holds these as a separate data set.
Test [11] can be described thus: nonselective inhibitors of cellular cAMP signaling, dose response, counter-screen for MC4R biased antagonist project, cell-based, TR-FRET cAMP detection (AID 602305).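 Also: U2OS cells stimulated with forskolin near its EC80 as the cAMP inducer; potency is for inhibition of forskolin-stimulated cAMP signaling.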 It counts as functional. A general note: Counterscreens check selectivity or assay interference.
For another test, the target named is Melanocortin receptor 4 (Homo sapiens, UniProt P32245). Nature of the test: MC4R antagonist potency on cAMP, dose response, cell-based, TR-FRET, biased antagonists (AID 602298).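 Also: antagonist potency against agonist-stimulated cAMP production.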 It counts as functional. (In general: In TR-FRET formats the signal depends on donor and acceptor labels being close together.)
Chain of Melanocortin receptor 4 (P32245 whole entry): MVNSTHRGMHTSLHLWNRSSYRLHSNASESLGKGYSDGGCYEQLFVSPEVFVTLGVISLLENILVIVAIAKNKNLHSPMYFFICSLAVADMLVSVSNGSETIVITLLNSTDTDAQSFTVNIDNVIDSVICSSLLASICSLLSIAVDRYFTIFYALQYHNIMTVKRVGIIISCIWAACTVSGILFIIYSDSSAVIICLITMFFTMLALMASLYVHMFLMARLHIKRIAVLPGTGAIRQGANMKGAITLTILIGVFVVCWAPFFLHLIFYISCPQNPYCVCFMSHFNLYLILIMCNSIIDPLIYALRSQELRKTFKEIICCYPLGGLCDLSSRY
The target of test [12] is Protein disulfide-isomerase (Homo sapiens, UniProt P07237). Put plainly: PDI inhibitors, insulin aggregation turbidity, dose response, biochemical, absorbance, cherry-picked samples (AID 602350). In kind it is functional.
Chain of Protein disulfide-isomerase (P07237 whole entry): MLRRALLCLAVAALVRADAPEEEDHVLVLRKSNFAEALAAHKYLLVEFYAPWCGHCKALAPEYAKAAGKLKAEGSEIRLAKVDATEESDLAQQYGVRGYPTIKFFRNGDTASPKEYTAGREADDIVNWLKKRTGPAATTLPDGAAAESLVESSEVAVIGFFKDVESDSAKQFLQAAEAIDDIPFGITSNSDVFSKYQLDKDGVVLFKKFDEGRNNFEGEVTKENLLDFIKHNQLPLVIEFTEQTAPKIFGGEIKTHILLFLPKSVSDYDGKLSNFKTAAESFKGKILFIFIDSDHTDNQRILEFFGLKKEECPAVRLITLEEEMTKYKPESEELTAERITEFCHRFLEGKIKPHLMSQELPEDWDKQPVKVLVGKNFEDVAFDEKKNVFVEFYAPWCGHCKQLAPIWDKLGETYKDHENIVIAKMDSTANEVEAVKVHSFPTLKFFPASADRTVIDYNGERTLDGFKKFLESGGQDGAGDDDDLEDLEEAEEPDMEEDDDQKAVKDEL
Test [13] addresses T2, High affinity choline transporter 1 (Homo sapiens, UniProt Q9GZV3).
T2 sequence (Q9GZV3 whole entry): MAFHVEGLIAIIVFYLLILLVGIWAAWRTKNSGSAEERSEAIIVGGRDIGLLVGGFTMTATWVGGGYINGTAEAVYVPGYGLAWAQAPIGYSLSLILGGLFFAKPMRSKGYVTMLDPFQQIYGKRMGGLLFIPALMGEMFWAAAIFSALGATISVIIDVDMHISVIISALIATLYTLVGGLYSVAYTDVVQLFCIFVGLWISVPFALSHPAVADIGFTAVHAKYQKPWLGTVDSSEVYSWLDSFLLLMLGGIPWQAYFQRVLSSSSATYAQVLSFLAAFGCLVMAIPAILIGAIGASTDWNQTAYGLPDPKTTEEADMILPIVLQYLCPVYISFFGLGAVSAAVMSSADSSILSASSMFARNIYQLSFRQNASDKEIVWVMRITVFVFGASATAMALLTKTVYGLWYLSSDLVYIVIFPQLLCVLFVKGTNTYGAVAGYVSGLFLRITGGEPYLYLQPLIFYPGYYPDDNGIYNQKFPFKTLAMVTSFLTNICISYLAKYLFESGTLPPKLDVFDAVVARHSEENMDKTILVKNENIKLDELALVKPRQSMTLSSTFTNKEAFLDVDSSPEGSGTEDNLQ
Put plainly: CHT activators, dose response, cell-based, 10-point CRC, membrane potential dye (AID 602376). In kind it is functional.

The target of the next test is Aurora kinase A (Homo sapiens, UniProt O14965). In kind it is functional.
Chain of Aurora kinase A (O14965 whole entry): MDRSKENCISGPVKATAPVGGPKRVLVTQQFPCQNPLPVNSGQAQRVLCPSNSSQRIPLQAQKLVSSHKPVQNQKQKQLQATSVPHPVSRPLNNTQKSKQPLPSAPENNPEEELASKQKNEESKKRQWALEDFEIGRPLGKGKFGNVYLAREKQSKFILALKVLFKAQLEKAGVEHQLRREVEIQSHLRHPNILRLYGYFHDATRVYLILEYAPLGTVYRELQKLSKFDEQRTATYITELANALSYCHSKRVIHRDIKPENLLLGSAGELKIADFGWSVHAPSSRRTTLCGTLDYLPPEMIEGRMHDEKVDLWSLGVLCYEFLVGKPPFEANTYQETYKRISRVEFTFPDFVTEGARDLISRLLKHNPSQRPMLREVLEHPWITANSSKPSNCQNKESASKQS
Another test concerns the target Aurora kinase B (Homo sapiens, UniProt Q96GD4). It counts as functional.
Test [14] deals with Vascular endothelial growth factor receptor 2 (Homo sapiens, UniProt P35968). It counts as functional.
Chain of Vascular endothelial growth factor receptor 2 (P35968 whole entry): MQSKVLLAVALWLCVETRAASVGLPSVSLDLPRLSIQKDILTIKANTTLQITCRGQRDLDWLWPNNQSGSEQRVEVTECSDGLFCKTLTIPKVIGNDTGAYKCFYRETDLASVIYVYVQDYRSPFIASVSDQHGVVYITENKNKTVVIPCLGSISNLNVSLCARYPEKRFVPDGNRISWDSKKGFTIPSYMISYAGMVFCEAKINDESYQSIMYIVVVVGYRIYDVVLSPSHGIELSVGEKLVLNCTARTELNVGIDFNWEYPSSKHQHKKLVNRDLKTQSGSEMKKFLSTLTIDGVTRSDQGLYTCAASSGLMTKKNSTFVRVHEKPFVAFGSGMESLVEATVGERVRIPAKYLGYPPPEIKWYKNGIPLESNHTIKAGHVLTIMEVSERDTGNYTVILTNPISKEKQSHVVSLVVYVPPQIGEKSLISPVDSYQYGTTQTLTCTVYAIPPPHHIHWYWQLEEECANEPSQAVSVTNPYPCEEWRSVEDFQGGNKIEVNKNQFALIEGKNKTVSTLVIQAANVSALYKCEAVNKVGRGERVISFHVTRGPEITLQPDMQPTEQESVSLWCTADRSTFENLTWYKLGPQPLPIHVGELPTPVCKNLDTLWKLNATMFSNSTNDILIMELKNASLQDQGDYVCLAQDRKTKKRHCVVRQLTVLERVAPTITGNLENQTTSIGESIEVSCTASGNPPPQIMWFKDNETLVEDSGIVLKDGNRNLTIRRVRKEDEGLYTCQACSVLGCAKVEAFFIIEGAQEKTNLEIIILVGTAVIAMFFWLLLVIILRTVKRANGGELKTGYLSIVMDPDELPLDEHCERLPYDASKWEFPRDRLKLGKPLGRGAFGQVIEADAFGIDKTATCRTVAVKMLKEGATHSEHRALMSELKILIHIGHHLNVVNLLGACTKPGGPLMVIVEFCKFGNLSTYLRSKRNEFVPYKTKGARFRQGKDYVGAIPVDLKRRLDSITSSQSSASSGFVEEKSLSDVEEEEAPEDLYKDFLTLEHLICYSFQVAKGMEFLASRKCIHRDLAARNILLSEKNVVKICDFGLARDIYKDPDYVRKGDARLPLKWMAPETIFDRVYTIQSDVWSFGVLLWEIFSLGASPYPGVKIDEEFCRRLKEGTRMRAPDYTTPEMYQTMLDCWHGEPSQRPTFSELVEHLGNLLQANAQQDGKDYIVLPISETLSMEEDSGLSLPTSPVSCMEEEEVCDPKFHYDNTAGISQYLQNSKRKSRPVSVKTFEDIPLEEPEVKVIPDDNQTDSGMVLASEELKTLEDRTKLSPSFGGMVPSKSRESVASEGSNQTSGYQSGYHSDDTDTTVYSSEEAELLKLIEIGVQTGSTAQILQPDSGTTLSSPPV
Test [15] addresses Inhibitor of nuclear factor kappa-B kinase subunit epsilon (Homo sapiens, UniProt Q14164). Nature of the test: Navigating the Kinome. Panel member name: IKBKE. In kind it is functional.
In test [16] the target is Cyclin-dependent kinase 19 (Homo sapiens, UniProt Q9BWU1). Nature of the test: Navigating the Kinome. Panel member name: CDC2L6. In kind it is functional.
Chain of Cyclin-dependent kinase 19 (Q9BWU1 whole entry): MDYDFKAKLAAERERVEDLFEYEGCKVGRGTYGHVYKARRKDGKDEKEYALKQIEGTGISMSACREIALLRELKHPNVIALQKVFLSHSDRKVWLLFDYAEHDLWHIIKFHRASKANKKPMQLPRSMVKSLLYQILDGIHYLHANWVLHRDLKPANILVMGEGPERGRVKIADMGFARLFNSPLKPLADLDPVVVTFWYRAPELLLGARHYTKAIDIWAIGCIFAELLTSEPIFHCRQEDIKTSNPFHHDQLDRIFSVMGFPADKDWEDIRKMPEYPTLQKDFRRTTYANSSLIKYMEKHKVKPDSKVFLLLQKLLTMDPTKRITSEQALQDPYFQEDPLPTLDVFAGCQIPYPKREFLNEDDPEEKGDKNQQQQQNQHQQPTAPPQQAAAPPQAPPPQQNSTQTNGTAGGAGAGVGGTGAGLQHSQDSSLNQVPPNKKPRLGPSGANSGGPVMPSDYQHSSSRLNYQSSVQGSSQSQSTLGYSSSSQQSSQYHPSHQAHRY
Test [17] addresses Neuropeptides B/W receptor type 1 (Homo sapiens, UniProt P48145). Nature of the test: GPR7 antagonist potency, late-stage follow-up, cell-based, fluorescence, dose response, set 6 (AID 588583). It counts as functional.
Test [18] addresses Melanin-concentrating hormone receptor 1 (Homo sapiens, UniProt Q99705). Put plainly: Late-stage fluorescence-based counterscreen for antagonists of the G-protein coupled receptor 7 (GPR7): cell-based dose response assay to identify antagonists of the melanin-concentrating hormone receptor 1 (MCHR1) Set 6. It counts as functional.
Test [19] in a line: MC4R antagonists, dose response, counter-screen for LGR2 antagonist project, cell-based, plate reader, cherry pick (AID 743444).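 Also: transfected HEK 293 cells stimulated with alpha-MSH peptide; potency of inhibitors of the alpha-MSH evoked signal.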 In kind it is functional.
The nature of the next test: cells. In kind it is functional, cell-based.
The target in test [20] is T3, Nuclear receptor subfamily 0 group B member 1 (Homo sapiens, UniProt P51843).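 Also: HEK293T cells transfected with SF-1 and DAX-1 plus StAR promoter luciferase reporter.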
T3 sequence (P51843 whole entry): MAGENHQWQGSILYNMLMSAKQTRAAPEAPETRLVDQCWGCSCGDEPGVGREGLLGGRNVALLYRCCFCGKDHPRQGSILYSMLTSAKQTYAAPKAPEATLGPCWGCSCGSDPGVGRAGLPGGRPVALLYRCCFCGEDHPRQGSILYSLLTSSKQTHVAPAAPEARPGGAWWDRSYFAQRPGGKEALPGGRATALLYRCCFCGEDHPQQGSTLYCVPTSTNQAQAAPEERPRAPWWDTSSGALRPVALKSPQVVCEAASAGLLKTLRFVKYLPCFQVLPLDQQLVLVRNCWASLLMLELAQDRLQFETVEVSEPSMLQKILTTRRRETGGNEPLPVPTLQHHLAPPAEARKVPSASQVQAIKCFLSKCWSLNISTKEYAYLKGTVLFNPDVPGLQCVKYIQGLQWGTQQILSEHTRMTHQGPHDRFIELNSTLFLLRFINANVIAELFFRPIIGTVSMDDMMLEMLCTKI
It counts as functional, cell-based.

Test [21] has as its target Latent membrane protein 1 (Human herpesvirus 4 (strain B95-8), UniProt P03230). Put plainly: TES1-eGFP NF-kB reporter inhibition versus Tet-On dsRED, dose response, selectivity assay for LMP1 NF-kB inhibitor project, imaging, HEK293T, dual-color eGFP/dsRED, cherry-picks (AID 588398). It counts as functional, cell-based.
Test [22] relates to HEK293. Put plainly: inhibitors of LMP1-driven NF-kB reporter, dose response, cell-based, HEK293, luciferase, cherry-pick (AID 588343). The note with it: Homo sapiens. In kind it is functional.
A short description of test [23]: LGR2 antagonists, dose response, cell-based, HEK293, CRE-luciferase reporter, cherry pick, set 2 (AID 743343).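 Also: transfected cells were stimulated with diluted bursicon conditioned medium after compound addition.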 In kind it is functional. For orientation: Reporter assays use an easily measured gene product as a stand-in for the process of interest.
A short description of test [24]: A549 cell cytotoxicity, dose response, cytotoxicity control, plate reader, cherry-pick, antagonist series (AID 743412). It counts as functional, cell-based.
Test [25] has as its target T4, DNA dC->dU-editing enzyme APOBEC-3G (Homo sapiens, UniProt Q9HC16). Put plainly: SAR analysis of small molecule inhibitors of APOBEC3G DNA Deaminase via a fluorescence-based single-stranded DNA deaminase assay - Set 2. It counts as functional. The note with it: read-out: IC50_Mean.
Test [26] deals with T5, DNA dC->dU-editing enzyme APOBEC-3A (Homo sapiens, UniProt P31941). Put plainly: SAR analysis of small molecule inhibitors of APOBEC3A DNA Deaminase via a fluorescence-based single-stranded DNA deaminase assay - Set 2. The following applies: read-out: IC50_Mean. In kind it is functional.
T5 sequence (P31941 whole entry): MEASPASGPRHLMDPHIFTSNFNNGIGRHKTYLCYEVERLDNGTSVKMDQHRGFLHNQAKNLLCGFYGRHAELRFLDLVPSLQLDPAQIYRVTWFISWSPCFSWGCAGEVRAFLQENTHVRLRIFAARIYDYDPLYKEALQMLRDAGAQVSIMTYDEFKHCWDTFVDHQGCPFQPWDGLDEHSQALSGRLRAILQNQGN
In test [27] the target is T4, DNA dC->dU-editing enzyme APOBEC-3G. Nature of the test: APOBEC3G deaminase inhibitors, SAR follow-up, biochemical, fluorescence, single-stranded DNA substrate (AID 602136). It counts as functional. The following applies: read-out: IC50_Mean.
Test [28] has as its target T5, DNA dC->dU-editing enzyme APOBEC-3A. Put plainly: SAR analysis of small molecule inhibitors of APOBEC3A DNA Deaminase via a fluorescence-based single-stranded DNA deaminase assay. The note with it: read-out: IC50_Mean. It counts as functional.

The structures appear in SMILES notation. Active and inactive are the calls of the source.

T4 sequence (Q9HC16 whole entry): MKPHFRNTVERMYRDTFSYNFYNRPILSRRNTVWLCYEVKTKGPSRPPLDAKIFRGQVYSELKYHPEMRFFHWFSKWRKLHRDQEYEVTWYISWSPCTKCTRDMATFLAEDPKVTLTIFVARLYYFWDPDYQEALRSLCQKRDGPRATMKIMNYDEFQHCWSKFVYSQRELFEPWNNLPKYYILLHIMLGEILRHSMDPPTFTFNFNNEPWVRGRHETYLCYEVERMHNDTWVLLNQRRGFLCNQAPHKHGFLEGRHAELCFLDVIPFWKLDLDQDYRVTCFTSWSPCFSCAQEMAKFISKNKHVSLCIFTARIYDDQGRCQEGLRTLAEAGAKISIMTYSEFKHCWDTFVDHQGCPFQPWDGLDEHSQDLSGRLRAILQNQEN
Chain of Aurora kinase B (Q96GD4 whole entry): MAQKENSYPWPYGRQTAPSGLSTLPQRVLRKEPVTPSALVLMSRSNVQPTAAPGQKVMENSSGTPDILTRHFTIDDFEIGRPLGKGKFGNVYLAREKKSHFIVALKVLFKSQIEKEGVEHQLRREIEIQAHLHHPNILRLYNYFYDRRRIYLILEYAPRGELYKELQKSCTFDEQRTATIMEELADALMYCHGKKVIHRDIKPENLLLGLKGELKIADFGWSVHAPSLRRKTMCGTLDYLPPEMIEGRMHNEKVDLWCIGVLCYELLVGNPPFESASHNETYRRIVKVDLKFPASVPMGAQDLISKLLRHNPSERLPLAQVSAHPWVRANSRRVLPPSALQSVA
Chain of Melanin-concentrating hormone receptor 1 (Q99705 whole entry): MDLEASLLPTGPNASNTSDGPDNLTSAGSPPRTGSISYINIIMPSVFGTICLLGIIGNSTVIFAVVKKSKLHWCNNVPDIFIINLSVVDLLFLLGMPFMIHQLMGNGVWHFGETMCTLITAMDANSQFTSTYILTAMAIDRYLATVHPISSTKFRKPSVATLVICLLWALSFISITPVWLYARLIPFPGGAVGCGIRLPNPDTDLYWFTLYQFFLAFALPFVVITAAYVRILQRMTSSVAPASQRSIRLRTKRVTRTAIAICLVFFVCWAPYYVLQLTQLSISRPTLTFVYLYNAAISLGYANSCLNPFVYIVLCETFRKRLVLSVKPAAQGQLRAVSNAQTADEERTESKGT
Chain of Latent membrane protein 1 (P03230 whole entry): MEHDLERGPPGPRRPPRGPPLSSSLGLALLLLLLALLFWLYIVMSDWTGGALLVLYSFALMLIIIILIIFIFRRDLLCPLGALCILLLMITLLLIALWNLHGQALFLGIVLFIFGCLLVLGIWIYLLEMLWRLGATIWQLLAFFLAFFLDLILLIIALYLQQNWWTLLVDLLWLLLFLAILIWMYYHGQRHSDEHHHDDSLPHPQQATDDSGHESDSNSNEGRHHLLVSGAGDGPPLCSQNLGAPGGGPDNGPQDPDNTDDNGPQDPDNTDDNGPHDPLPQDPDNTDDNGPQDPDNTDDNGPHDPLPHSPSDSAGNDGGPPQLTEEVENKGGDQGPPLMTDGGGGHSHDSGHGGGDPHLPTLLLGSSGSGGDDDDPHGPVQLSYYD

As for `Cc1cc(C)n(Cc2ccc(NC(=O)c3ccc(COc4ccccc4Br)cc3)cc2)n1`, the IC50 was > 69.5 µM (inactive) in [1]; > 69.5 µM (inactive) in [2]; 4.26 µM (active) with HEK293 [3]; 4.34 µM (active) in the test with HEK293 [9]; 13.2 µM (active) in the test with HEK293 [10]. The EC50 – broadly, the concentration giving half of the maximal effect – with HEK293 [4] was 8.42 µM (active). Also, the half-maximal activity concentration (AC50) (commonly the midpoint of the concentration-response curve, whichever way the signal moves) in test [5] was 48.8 µM (active); at Cytochrome P450 3A4 it was 14.1 µM (inconclusive); in test [6] it was 1.56 µM (active); with INS1, 8.58 µM (active); on CAAX prenyl protease 2 [7], 9.4 µM (active); on CAAX prenyl protease 2 [8], 1.08 µM (active).

Consider `Cc1nc2c(sc3nc(N4CCOCC4)c4c(c32)CC(C)(C)OC4)c(-c2ccccc2)c1C(=O)O`, for which the IC50 in [11] was > 64.6 µM (inactive); on Melanocortin receptor 4, 15.5 µM (inactive). For the same compound, in test [6], the AC50 is 0.324 µM (active).

With `CN(C)S(=O)(=O)c1ccc(Cl)c(NC(=O)CSc2nnnn2-c2ccc(O)cc2)c1`, the AC50 in [12] was 19.5 µM (active).

On to `CCOC(=O)c1sc(NC(=O)Cc2ccccc2OC)nc1C`, for which the EC50 in [13] is 22.4 µM (active).

With `Cn1c(SC(C(=O)O)c2ccccc2)nc2ccccc2c1=O` (stereo not given), the Ki – broadly, the equilibrium dissociation constant of an inhibitor or competing ligand from its target – was > 2 µM (inactive) at Aurora kinase A, 0.0794 µM (active) on Aurora kinase B and > 5.01 µM (inactive) in [14].

`Nc1noc2c(CN3CCOCC3)ccc(-c3ccc(NC(=O)Nc4cc(C(F)(F)F)ccc4F)cc3)c12`: the inhibitory constant (Ki) in test [15] is 1 µM (active); in test [16] it was > 100 µM (inactive).

Regarding `N#CC(C(=O)N1CCCC1)c1c(Cl)cnn(Cc2cccc3ccccc23)c1=O` (stereo not given), the IC50 in test [17] and in [18] was 0.915 µM (active) each time.

Consider `c1ccc(-c2cn3c4c(sc3n2)CCCC4)cc1`, for which the AC50 was 4.25 µM (active) in test [19]; 31.6 µM (active) in [21]; 1.92 µM (active) in the test with HEK293 [22]; 2.72 µM (active) in [23]; 41.1 µM (active) in test [24]. For the same compound, the IC50 (in the test “cells”; in [20]) was > 67.6 µM (inactive) throughout.

As for `Cc1cc(C)n2nc(C(=O)NCc3ccccc3)c(Br)c2n1`, the IC50 in [25] is > 99 µM (inactive); in test [26], 76.8 µM (inactive).

`COc1ccc(-c2nnc(SC(C)C(=O)Nc3nc(-c4ccc(F)c(F)c4)cs3)[nH]2)cc1` (stereo not given): the IC50 in [27] was 40.5 µM (inactive); in test [28], > 99 µM (inactive).

The values above are taken from ChEMBL document CHEMBL1201862, “PubChem BioAssay data set” (2004).
